In patent US20110251212A1, “PIPERAZINE DERIVATIVES” (SHIONOGI & CO., LTD., priority 2007, published 2011):

Molecular target: T1, NMDA Receptor (NR1/NR2B Receptor) (Rattus norvegicus, UniProt P35439+Q00960)
T1 construct: this was used as a membrane specimen in an experiment; from tissue; host or cells: rat cerebral cortex membranes
Experiment: Experiment of binding to NMDA receptor (NR1/NR2B receptor), [3H]-Ifenprodil competition, rat cerebral cortex membrane
Details: [3H]-Ifenprodil 5 nM, GBR-12909 3 μM, ice temperature 120 minutes
Experimental: Using Ifenprodil which is a NR1/NR2B subtype receptor-specific antagonist as a ligand, an experiment of receptor competition with a test compound was performed.
A male Slc:Wistar rat was used as an animal, a decapitated brain was isolated, and cerebral cortex was fractionated. The cerebral cortex was homogenized with a 20-fold amount of an ice-cooled 50 mM Tris/HCl buffer (pH 7.4), and centrifuged at 4° C. and 27,500×g for 10 minutes. The resulting precipitate was suspended in the same buffer, and the suspension was centrifuged again. This procedure was repeated three times, and the resulting precipitate was suspended in a buffer, and stored at −80° C. Immediately before an experiment, the frozen suspension was thawed at room temperature, and centrifuged at 4° C. and 27,500×g for 10 minutes, and the resulting precipitate was suspended in a buffer. The suspension was further diluted 10-fold with a buffer, and this was used as a membrane specimen in an experiment.
In a binding experiment, to 470 μl of the membrane specimen were added 10 μl of different concentrations of a test compound, 10 μl of a labeled ligand [3H]-Ifenprodil and 10 μl of GBR-12909, and this was incubated at an ice temperature for 120 minutes. A concentration of [3H]-Ifenprodil of the labeled ligand was finally 5 nM, and a concentration of GBR-12909 was finally 3 μM. For measuring a total binding amount, DMSO as a solvent was used and, for measuring a non-specific binding amount, 100 μM of Ifenprodil was used. In addition, GBR-12909 was added in order to block binding of [3H]-Ifenprodil to a non-polyamine-sensitive site. After incubation, a bound body and a free body were separated using a Whatman GF/C filter (manufactured by Whatman), and the filter was washed with 2.5 ml of an ice-cooled buffer four times. The filter was immersed in a liquid scintillation (Clear-sol I, manufactured by Nacalai tesque) in a vial bottle, and radioactivity (dpm) was measured with a liquid scintillation counter. From a measured value, a binding inhibition rate (%) was obtained by the following equation, and a dose at which binding is inhibited 50% (IC50) was calculated. A formula of GBR-12909 (Vanoxerine) is shown below.
Binding inhibition rate(%)=100−[(binding amount in presence of test compound−non-specific amount)/(total binding amount−non-specific binding amount)]×100

T1 sequence (Q00960 27-1482, other chains not shown): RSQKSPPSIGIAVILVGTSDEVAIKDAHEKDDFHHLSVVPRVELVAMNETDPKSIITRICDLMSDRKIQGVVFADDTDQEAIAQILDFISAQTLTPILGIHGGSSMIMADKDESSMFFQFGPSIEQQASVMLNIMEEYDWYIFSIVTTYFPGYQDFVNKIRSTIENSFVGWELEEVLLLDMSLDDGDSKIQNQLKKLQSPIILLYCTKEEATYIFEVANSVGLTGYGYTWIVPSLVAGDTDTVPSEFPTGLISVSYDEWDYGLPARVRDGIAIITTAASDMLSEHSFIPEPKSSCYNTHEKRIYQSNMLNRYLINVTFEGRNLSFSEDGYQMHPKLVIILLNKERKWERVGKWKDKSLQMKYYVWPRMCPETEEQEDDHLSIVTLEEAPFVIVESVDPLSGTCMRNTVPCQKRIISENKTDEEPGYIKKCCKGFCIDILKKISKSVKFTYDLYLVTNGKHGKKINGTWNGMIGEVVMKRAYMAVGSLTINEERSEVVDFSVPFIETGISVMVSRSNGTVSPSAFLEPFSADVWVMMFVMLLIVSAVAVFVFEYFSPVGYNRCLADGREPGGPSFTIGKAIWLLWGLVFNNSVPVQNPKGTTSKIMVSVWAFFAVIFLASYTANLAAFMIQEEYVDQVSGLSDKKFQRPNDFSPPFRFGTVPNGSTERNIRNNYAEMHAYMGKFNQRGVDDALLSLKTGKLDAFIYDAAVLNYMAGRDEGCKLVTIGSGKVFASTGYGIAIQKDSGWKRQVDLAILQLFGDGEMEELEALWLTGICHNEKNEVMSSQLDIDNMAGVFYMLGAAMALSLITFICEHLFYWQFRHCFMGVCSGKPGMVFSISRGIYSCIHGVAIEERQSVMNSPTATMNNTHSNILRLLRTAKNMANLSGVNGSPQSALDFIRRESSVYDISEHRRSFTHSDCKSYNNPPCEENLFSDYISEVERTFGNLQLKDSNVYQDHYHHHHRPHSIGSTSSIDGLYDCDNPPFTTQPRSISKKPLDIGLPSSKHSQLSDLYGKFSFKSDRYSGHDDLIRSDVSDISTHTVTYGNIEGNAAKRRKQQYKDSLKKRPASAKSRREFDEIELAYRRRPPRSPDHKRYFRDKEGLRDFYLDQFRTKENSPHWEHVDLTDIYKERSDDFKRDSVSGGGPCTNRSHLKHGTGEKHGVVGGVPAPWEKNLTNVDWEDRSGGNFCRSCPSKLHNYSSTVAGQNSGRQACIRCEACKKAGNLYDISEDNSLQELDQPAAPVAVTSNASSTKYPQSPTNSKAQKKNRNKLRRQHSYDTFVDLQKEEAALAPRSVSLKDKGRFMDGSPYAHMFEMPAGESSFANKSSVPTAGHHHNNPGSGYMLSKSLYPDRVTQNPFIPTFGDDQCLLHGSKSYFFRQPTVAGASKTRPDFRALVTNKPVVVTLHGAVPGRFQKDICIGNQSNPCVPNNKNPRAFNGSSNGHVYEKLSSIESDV

| IC50 | Compound |
| --- | --- |
| 0.149 µM | O=C(CNc1ccc2[nH]c(=O)oc2c1)N1CCN(c2ccc(Cl)c(F)c2)CC1 [Compound I-1] |
| 0.026 µM | C[C@@H]1CN(c2ccc(Cl)c(F)c2)CCN1C(=O)CNc1ccc2[nH]c(=O)oc2c1 [Compound I-6] |
| 0.04 µM | Cc1cc(N2CCN(C(=O)C(=O)Nc3ccc4[nH]c(=O)oc4c3)[C@H](C)C2)ccc1Cl [Compound I-40] |

Molecular target: T2, mouse NMDA receptor (NR1 subunit and NR2B subunit co-expressed in HEK293 cells) (Mus musculus, UniProt P35438+Q01097)
T2 construct: expressed in transfected cells; host or cells: HEK293 cells, transient, pcDNA 3.1 plasmids
Experiment: Expression of NMDA receptor and measurement of Ca ion flow in amount (HEK293 cells, Fluo-3/AM, FDSS3000)
Assay type: cell-based
Details: Ca ion flow in induced with glutamic acid 20 μM/glycine 2 μM, read-out: Ca2+ 1050
Experimental: Test Example 2 Expression of NMDA receptor and measurement of Ca ion flow in amount
A complementary DNA (cDNA) of a mouse NMDA receptor subunit was transiently introduced into HEK293 cells and, after one day from introduction, change in a glutamic acid/glycine-induced intracellular Ca amount was measured using a Ca ion reactive fluorescent dye.
HEK293 cells were cultured and passaged using a modified Dulbecco's Eagle medium (DMEM, low glucose).
20,000/well of HEK293 cells were seeded on a 96-well plate, a NR1 subunit and a NR2B subunit of a NMDA receptor incorporated into pcDNA 3.1 plasmid were transiently introduced into cells, and co-expression of subunits was performed. An introduction amount of a DNA was such that the NR1 subunit was 0.025 μg, and the NR2B subunit was 0.075 μg per well. For cells after introduction, cell death was inhibited using 50 μM of a NMDA receptor antagonist MK-801.
For adjusting a test compound and washing cells, Krebs Ringer Hepes buffer (KRH, Ca: 5 mM) was used.
One day after introduction, the NMDA receptor antagonist MK-801 was washed off using the KRH buffer, and a Ca ion indicative fluorescent dye Fluo-3/AM was made to be taken into cells. Flow in of a Ca ion was induced with glutamic acid 20 μM/glycine 2 μM. Change in a fluorescence amount due to intracellular Ca ion flow in was measured at excitation 480 nm using a fluorescence imaging system FDSS3000.
From a measured value of the test compound, a Ca ion flow in inhibitory rate (%) was obtained by the following equation, and a dose at which flow in is 50% inhibited (IC50) was calculated.
Ca ion flow in inhibitory rate(%)=100−[(fluorescence amount in presence of test compound−background fluorescence amount)/(total fluorescence amount[…]background fluorescence amount)]×100

T2 sequence (Q01097 27-1482, other chains not shown): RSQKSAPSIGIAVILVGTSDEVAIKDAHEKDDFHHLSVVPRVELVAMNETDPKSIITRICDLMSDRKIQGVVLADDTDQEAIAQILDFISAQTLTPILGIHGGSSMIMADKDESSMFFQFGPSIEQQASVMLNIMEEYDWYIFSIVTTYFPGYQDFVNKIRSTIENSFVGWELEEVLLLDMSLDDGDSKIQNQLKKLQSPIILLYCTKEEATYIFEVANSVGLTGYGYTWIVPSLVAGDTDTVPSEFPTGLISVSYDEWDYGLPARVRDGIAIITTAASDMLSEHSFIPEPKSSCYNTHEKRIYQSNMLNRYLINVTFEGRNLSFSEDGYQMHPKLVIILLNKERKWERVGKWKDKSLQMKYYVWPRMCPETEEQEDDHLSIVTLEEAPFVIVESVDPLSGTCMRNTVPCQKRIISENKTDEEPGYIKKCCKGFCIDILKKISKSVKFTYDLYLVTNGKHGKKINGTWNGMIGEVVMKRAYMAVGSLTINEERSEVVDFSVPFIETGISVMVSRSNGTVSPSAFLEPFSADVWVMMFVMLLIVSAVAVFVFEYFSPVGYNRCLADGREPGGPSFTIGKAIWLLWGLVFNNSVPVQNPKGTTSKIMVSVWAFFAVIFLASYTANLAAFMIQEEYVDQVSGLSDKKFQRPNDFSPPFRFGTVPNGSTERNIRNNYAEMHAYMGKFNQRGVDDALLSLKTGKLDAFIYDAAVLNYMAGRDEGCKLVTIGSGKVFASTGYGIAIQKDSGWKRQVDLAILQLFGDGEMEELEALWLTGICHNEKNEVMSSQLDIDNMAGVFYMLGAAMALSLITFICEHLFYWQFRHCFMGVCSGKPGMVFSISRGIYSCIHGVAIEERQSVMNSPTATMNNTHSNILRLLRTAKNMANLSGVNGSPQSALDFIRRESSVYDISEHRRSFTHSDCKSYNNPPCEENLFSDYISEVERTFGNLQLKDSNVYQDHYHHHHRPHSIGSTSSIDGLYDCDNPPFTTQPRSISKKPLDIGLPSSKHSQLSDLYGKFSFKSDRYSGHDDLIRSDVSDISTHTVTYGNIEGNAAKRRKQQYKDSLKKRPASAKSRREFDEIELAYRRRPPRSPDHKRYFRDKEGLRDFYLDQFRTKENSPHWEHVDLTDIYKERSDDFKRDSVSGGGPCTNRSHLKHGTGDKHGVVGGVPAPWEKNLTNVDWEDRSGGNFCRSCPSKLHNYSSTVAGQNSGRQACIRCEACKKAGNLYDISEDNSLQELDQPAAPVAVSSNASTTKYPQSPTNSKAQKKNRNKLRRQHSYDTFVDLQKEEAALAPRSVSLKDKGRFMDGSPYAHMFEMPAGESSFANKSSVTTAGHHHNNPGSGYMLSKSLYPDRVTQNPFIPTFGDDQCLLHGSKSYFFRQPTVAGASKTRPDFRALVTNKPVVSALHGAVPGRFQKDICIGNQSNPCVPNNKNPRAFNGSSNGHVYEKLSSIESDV

| IC50 | Compound |
| --- | --- |
| 0.049 µM | O=C(CNc1ccc2[nH]c(=O)oc2c1)N1CCN(c2ccc(Cl)c(F)c2)CC1 [Compound I-1] |
| 0.02 µM | C[C@@H]1CN(c2ccc(Cl)c(F)c2)CCN1C(=O)CNc1ccc2[nH]c(=O)oc2c1 [Compound I-6] |
| 0.089 µM | COc1c(F)cc(N2CCN(C(=O)CNc3ccc4[nH]c(=O)oc4c3)CC2)cc1F [Compound I-7] |
| 0.014 µM | Cc1cc(N2CCN(C(=O)C(=O)Nc3ccc4[nH]c(=O)oc4c3)[C@H](C)C2)ccc1Cl [Compound I-40] |

Tested on: not given
Experiment: not given
Details: not given

| melting point | Compound |
| --- | --- |
| 136 to 138 °C | O=C(CNc1ccc2[nH]c(=O)oc2c1)N1CCN(c2ccc(Cl)c(F)c2)CC1 [Compound I-1] |
| 223 to 225 °C | CC(Nc1ccc2[nH]c(=O)oc2c1)C(=O)N1CCN(c2ccc(Cl)c(F)c2)CC1 (stereo not drawn) [Compound I-4] |
| 245 to 246 °C | C[C@@H]1CN(c2ccc(F)cc2)C[C@H](C)N1C(=O)C(=O)Nc1ccc2[nH]c(=O)oc2c1 [Compound I-5] |
| 224 to 226 °C | C[C@@H]1CN(c2ccc(Cl)c(F)c2)CCN1C(=O)CNc1ccc2[nH]c(=O)oc2c1 [Compound I-6] |
| 194 to 196 °C | COc1c(F)cc(N2CCN(C(=O)CNc3ccc4[nH]c(=O)oc4c3)CC2)cc1F [Compound I-7] |
| 123 to 124 °C | Cc1cc(N2CCN(C(=O)C(=O)Nc3ccc4[nH]c(=O)oc4c3)[C@H](C)C2)ccc1Cl [Compound I-40] |
| 112 to 114 °C | Cc1cc(N2CCN(C(=O)CNc3ccc4[nH]c(=O)oc4c3)C[C@H]2C)ccc1Cl [Compound I-63] |
| 223 to 225 °C | O=C(CN1CCN(c2ccc(Cl)cc2)CC1=O)Nc1ccc2[nH]c(=O)oc2c1 [Compound I-67] |
